Measured values published in the supplement of paper PMC11208160.

Experiment: recombinant UMI read abundance after kanamycin selection (control-corrected) (log10(CPM+1)); higher = more efficient recombination; extreme values may be limits of the assay; sequences stand for … in AGTGCAGAGAAAATCGGCCAGTTTTCTCTGCCTGCAGTCCGCATGCCGTGGGACCCCTTGGGTTCTAACCTGTTGCCTAGATTTATGCAGCGGACTGCCTTTCTCCCAAAGTGATAAACCGG…AGGTTGGTTTCACT; site = the 11-nt donor
Method in brief: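 Counts of recombinant UMIs were reported as log10(CPM+1). Before that, they were converted to CPM, averaged over replicates and scaled using control-derived factors. They came from PCR across the donor–target junction after Escherichia coli carrying the pair library and target plasmid was plated on IPTG (0.07 mM) plus kanamycin, or unselected, in two replicates each.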
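Further: IS621 bridge recombinase in Escherichia coli cells against a fixed T5 target plasmid.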

Sequence: TTAGATGCATGGACCGGTTTTCCCGGTAATCCGTATTTGTG (site TTAGATGCTCA)
- recombinant UMI read abundance (log10): 1.52

Sequence: TTAGATGCATGGACCGGTTTTCCCGGTAATCCGTATTTGTG (site TTAGCTGCTCA)
- recombinant UMI read abundance (log10): 0.0227

Sequence: TTAGATGCATGGACCGGTTTTCCCGGTAATCCGTATTTGTG (site TTAGGTGCTCA)
- recombinant UMI read abundance (log10): 0.00706

Sequence: TTAGATGCATGGACCGGTTTTCCCGGTAATCCGTATTTGTG (site TTAGTTGCTCA)
- recombinant UMI read abundance (log10): 0.00838

Sequence: TTAGCCGCATGGACCGGTTTTCCCGGTAATCCGTATTTGTG (site TTAGCAGCTCA)
- recombinant UMI read abundance (log10): 0.108

Sequence: TTAGCCGCATGGACCGGTTTTCCCGGTAATCCGTATTTGTG (site TTAGCCGCTCA)
- recombinant UMI read abundance (log10): 0.564

Sequence: TTAGCCGCATGGACCGGTTTTCCCGGTAATCCGTATTTGTG (site TTAGCGGCTCA)
- recombinant UMI read abundance (log10): 0.0427

Sequence: TTAGCCGCATGGACCGGTTTTCCCGGTAATCCGTATTTGTG (site TTAGCTGCTCA)
- recombinant UMI read abundance (log10): 0.00693

Sequence: TTAGCTCCATGGACCGGTTTTCCCGGTAATCCGTATTTGTG (site TTAGCTACTCA)
- recombinant UMI read abundance (log10): 0.00349

Sequence: TTAGCTCCATGGACCGGTTTTCCCGGTAATCCGTATTTGTG (site TTAGCTCCTCA)
- recombinant UMI read abundance (log10): 0.0123

Sequence: TTAGCTCCATGGACCGGTTTTCCCGGTAATCCGTATTTGTG (site TTAGCTGCTCA)
- recombinant UMI read abundance (log10): 0.00795

Sequence: TTAGCTCCATGGACCGGTTTTCCCGGTAATCCGTATTTGTG (site TTAGCTTCTCA)
- recombinant UMI read abundance (log10): 0.0128

Sequence: TTAGCTGCATGGACCGGTTTTCCCGGTAATCCGTATTTGAG (site TTAGCTGCTCA)
- recombinant UMI read abundance (log10): 0.025

Sequence: TTAGCTGCATGGACCGGTTTTCCCGGTAATCCGTATTTGAG (site TTAGCTGCTCC)
- recombinant UMI read abundance (log10): 0.0699

Sequence: TTAGCTGCATGGACCGGTTTTCCCGGTAATCCGTATTTGAG (site TTAGCTGCTCG)
- recombinant UMI read abundance (log10): 0.0144

Sequence: TTAGCTGCATGGACCGGTTTTCCCGGTAATCCGTATTTGAG (site TTAGCTGCTCT)
- recombinant UMI read abundance (log10): 0.839

Sequence: TTAGCTGCATGGACCGGTTTTCCCGGTAATCCGTATTTGCG (site TTAGCTGCTCA)
- recombinant UMI read abundance (log10): 0.00643

Sequence: TTAGCTGCATGGACCGGTTTTCCCGGTAATCCGTATTTGCG (site TTAGCTGCTCC)
- recombinant UMI read abundance (log10): 0.0194

Sequence: TTAGCTGCATGGACCGGTTTTCCCGGTAATCCGTATTTGCG (site TTAGCTGCTCG)
- recombinant UMI read abundance (log10): 1.41

Sequence: TTAGCTGCATGGACCGGTTTTCCCGGTAATCCGTATTTGCG (site TTAGCTGCTCT)
- recombinant UMI read abundance (log10): 0.00813

Sequence: TTAGCTGCATGGACCGGTTTTCCCGGTAATCCGTATTTGTA (site TTAGCTGCTAA)
- recombinant UMI read abundance (log10): 0.0184

Sequence: TTAGCTGCATGGACCGGTTTTCCCGGTAATCCGTATTTGTA (site TTAGCTGCTCA)
- recombinant UMI read abundance (log10): 0.026

Sequence: TTAGCTGCATGGACCGGTTTTCCCGGTAATCCGTATTTGTA (site TTAGCTGCTGA)
- recombinant UMI read abundance (log10): 0

Sequence: TTAGCTGCATGGACCGGTTTTCCCGGTAATCCGTATTTGTA (site TTAGCTGCTTA)
- recombinant UMI read abundance (log10): 1.35

Sequence: TTAGCTTCATGGACCGGTTTTCCCGGTAATCCGTATTTGTG (site TTAGCTACTCA)
- recombinant UMI read abundance (log10): 0.0149

Sequence: TTAGCTTCATGGACCGGTTTTCCCGGTAATCCGTATTTGTG (site TTAGCTCCTCA)
- recombinant UMI read abundance (log10): 0.012

Sequence: TTAGCTTCATGGACCGGTTTTCCCGGTAATCCGTATTTGTG (site TTAGCTGCTCA)
- recombinant UMI read abundance (log10): 0.00609

Sequence: TTAGCTTCATGGACCGGTTTTCCCGGTAATCCGTATTTGTG (site TTAGCTTCTCA)
- recombinant UMI read abundance (log10): 0.478

Sequence: TTAGGTTCATGGACCGGTTTTCCCGGTAATCCGTATTTGGC (site TTAGGTTCTGC)
- recombinant UMI read abundance (log10): 2.53

Sequence: TTAGTATCATGGACCGGTTTTCCCGGTAATCCGTATTTGAG (site CTAGTATCTGT)
- recombinant UMI read abundance (log10): 0

Sequence: TTAGTATCATGGACCGGTTTTCCCGGTAATCCGTATTTGAG (site TTAGTATCTCT)
- recombinant UMI read abundance (log10): 1.66

Sequence: TTAGTCTCATGGACCGGTTTTCCCGGTAATCCGTATTTGAC (site CTAGTATCTGT)
- recombinant UMI read abundance (log10): 0
